Assay: Safety and tolerability (adverse events, CTCAE v5.0; full analysis set)
Type: in vivo, human
Description: Safety and tolerability were evaluated in terms of AEs, which were classified and graded according to the National Cancer Institute (NCI) Common Terminology Criteria for Adverse Events (CTCAE) v5.0; vital signs; 12-lead electrocardiogram (ECG); and clinical laboratory assessments, including clinical chemistry and hematology parameters, urinalysis, HbA1c levels, and lipid profiles.
Efficacy analyses were also performed on the full analysis set. Summary and/or descriptive statistics were used to analyze baseline demographic, safety, and efficacy data; PFS and DoR were estimated using Kaplan–Meier methodology.

[1] = part B period 4, capivasertib only 400 mg BID, N=19
[2] = period 2, days 2–7 cycle 1, capivasertib only 400 mg BID, N=21
[3] = total, all treatment periods, N=21

NC1(C(=O)N[C@@H](CCO)c2ccc(Cl)cc2)CCN(c2nc[nH]c3nccc2-3)CC1 [capivasertib]
1 (5.3) n (%): Abdominal pain, any grade [1] | Abdominal pain, grade ≥ 3 [1] | Asthenia, grade ≥ 3 [1] | Blood bilirubin increased, grade ≥ 3 [1] | COVID-19, any grade [1] | COVID-19, grade ≥ 3 [1] | Diarrhea, grade ≥ 3 [1] | Gamma-glutamyl transferase increased, any grade [1] | Gamma-glutamyl transferase increased, grade ≥ 3 [1] | Hypokalemia, grade ≥ 3 [1] | Hyponatremia, grade ≥ 3 [1] | Hypotension, grade ≥ 3 [1] | Large intestinal obstruction, any grade [1] | Large intestinal obstruction, grade ≥ 3 [1] | Sepsis, any grade [1] | Sepsis, grade ≥ 3 [1] | Ureteric obstruction, any grade [1] | Ureteric obstruction, grade ≥ 3 [1]
3 (14.3) n (%): Any AE, grade ≥ 3 [2] | Asthenia, any grade [3] | Blood creatinine increased, any grade [3] | Lymphocyte count decreased, any grade [3] | Rash (group term), grade ≥ 3 [3]
16 (76.2) n (%): Diarrhea, any grade [3]
1 (4.8) n (%): Abdominal pain, any grade [2] | Anemia, grade ≥ 3 [2] | Asthenia, any grade [2] | Hyperglycemia, any grade [2] | Hypoalbuminemia, any grade [2] | Hypoalbuminemia, grade ≥ 3 [2] | Hypokalemia, any grade [2] | Hyponatremia, any grade [2] | Lymphocyte count decreased, any grade [2] | Lymphocyte count decreased, grade ≥ 3 [2] | Thrombocytopenia, any grade [2] | Thrombocytopenia, grade ≥ 3 [2] | Abdominal pain, grade ≥ 3 [3] | Anemia, grade ≥ 3 [3] | Asthenia, grade ≥ 3 [3] | Blood alkaline phosphatase increased, any grade [3] | Blood alkaline phosphatase increased, grade ≥ 3 [3] | Blood bilirubin increased, grade ≥ 3 [3] | COVID-19, grade ≥ 3 [3] | Diarrhea, grade ≥ 3 [3] | Gamma-glutamyl transferase increased, any grade [3] | Gamma-glutamyl transferase increased, grade ≥ 3 [3] | Hyperglycemia, grade ≥ 3 [3] | Hypoalbuminemia, any grade [3] | Hypoalbuminemia, grade ≥ 3 [3] | Hypokalemia, grade ≥ 3 [3] | Hyponatremia, grade ≥ 3 [3] | Hypotension, grade ≥ 3 [3] | Large intestinal obstruction, any grade [3] | Large intestinal obstruction, grade ≥ 3 [3] | Lymphocyte count decreased, grade ≥ 3 [3] | Sepsis, any grade [3] | Sepsis, grade ≥ 3 [3] | Thrombocytopenia, any grade [3] | Thrombocytopenia, grade ≥ 3 [3] | Ureteric obstruction, any grade [3] | Ureteric obstruction, grade ≥ 3 [3] | Urticaria, any grade [3] | Urticaria, grade ≥ 3 [3]
8 (38.1) n (%): Rash (group term), any grade [3]
manageable safety profile: safety profile (administered with or without midazolam)
14 (66.7) n (%): Any AE, grade ≥ 3 [3]
76.2%: Diarrhea, frequency of patients overall (all treatment periods, N = 21)
4 (21.1) n (%): Anemia, any grade [1] | Decreased appetite, any grade [1] | Fatigue, any grade [1] | Nausea, any grade [1]
33.3%: Fatigue, frequency of patients overall (all treatment periods, N = 21) | Nausea, frequency of patients overall (all treatment periods, N = 21)
57.1%: patients who experienced grade 3 AEs (in total, N = 21)
7 (36.8) n (%): Diarrhea, any grade [1]
5 (23.8) n (%): Decreased appetite, any grade [3] | Hypokalemia, any grade [3]
no reports of QT prolongation: QT prolongation (ECG, whole study)
4 (19.0) n (%): Hyponatremia, any grade [3] | Hypotension, any grade [3]
3 (15.8) n (%): Blood creatinine increased, any grade [1] | Hyperglycemia, any grade [1] | Hypokalemia, any grade [1] | Hyponatremia, any grade [1] | Hypotension, any grade [1]
four: deaths during the study (one in part A, three in part B, none deemed possibly related to study treatment)
6 (28.6) n (%): Diarrhea, any grade [2] | Anemia, any grade [3] | Hyperglycemia, any grade [3]
66.7%: patients requiring a capivasertib dose interruption due to AEs (N = 21) | patients who experienced grade ≥ 3 AEs (in total, N = 21)
9 (47.4) n (%): Any AE, grade ≥ 3 [1]
23.8%: patients requiring a capivasertib dose reduction due to AEs (N = 21)
2 (10.5) n (%): Asthenia, any grade [1] | Blood bilirubin increased, any grade [1] | Decreased appetite, grade ≥ 3 [1] | Fatigue, grade ≥ 3 [1] | Lymphocyte count decreased, any grade [1] | Rash (group term), any grade [1]
17 (89.5) n (%): Any AE, any grade [1]
Three: patients with AEs leading to permanent discontinuation of capivasertib (N = 21)
2 (9.5) n (%): Anemia, any grade [2] | Nausea, any grade [2] | Abdominal pain, any grade [3] | Blood bilirubin increased, any grade [3] | COVID-19, any grade [3] | Decreased appetite, grade ≥ 3 [3] | Fatigue, grade ≥ 3 [3]
7 (33.3) n (%): Fatigue, any grade [3] | Nausea, any grade [3]
five: serious AEs (SAEs) reported in the study (n = 1 period 2, n = 1 period 3, n = 3 part B, only one considered related to study treatment)
10 (47.6) n (%): Any AE, any grade [2]
0 n (%): Anemia, grade ≥ 3 [1] | Blood alkaline phosphatase increased, any grade [1] | Blood alkaline phosphatase increased, grade ≥ 3 [1] | Blood creatinine increased, grade ≥ 3 [1] | Hyperglycemia, grade ≥ 3 [1] | Hypoalbuminemia, any grade [1] | Hypoalbuminemia, grade ≥ 3 [1] | Lymphocyte count decreased, grade ≥ 3 [1] | Nausea, grade ≥ 3 [1] | Rash (group term), grade ≥ 3 [1] | Thrombocytopenia, any grade [1] | Thrombocytopenia, grade ≥ 3 [1] | Urticaria, any grade [1] | Urticaria, grade ≥ 3 [1] | Abdominal pain, grade ≥ 3 [2] | Asthenia, grade ≥ 3 [2] | Blood alkaline phosphatase increased, any grade [2] | Blood alkaline phosphatase increased, grade ≥ 3 [2] | Blood bilirubin increased, any grade [2] | Blood bilirubin increased, grade ≥ 3 [2] | Blood creatinine increased, any grade [2] | Blood creatinine increased, grade ≥ 3 [2] | COVID-19, any grade [2] | COVID-19, grade ≥ 3 [2] | Decreased appetite, any grade [2] | Decreased appetite, grade ≥ 3 [2] | Diarrhea, grade ≥ 3 [2] | Fatigue, any grade [2] | Fatigue, grade ≥ 3 [2] | Gamma-glutamyl transferase increased, any grade [2] | Gamma-glutamyl transferase increased, grade ≥ 3 [2] | Hyperglycemia, grade ≥ 3 [2] | Hypokalemia, grade ≥ 3 [2] | Hyponatremia, grade ≥ 3 [2] | Hypotension, any grade [2] | Hypotension, grade ≥ 3 [2] | Large intestinal obstruction, any grade [2] | Large intestinal obstruction, grade ≥ 3 [2] | Nausea, grade ≥ 3 [2] | Rash (group term), any grade [2] | Rash (group term), grade ≥ 3 [2] | Sepsis, any grade [2] | Sepsis, grade ≥ 3 [2] | Ureteric obstruction, any grade [2] | Ureteric obstruction, grade ≥ 3 [2] | Urticaria, any grade [2] | Urticaria, grade ≥ 3 [2] | Blood creatinine increased, grade ≥ 3 [3] | Nausea, grade ≥ 3 [3]
21 (100) n (%): Any AE, any grade [3]
4.8%: patients who experienced a grade 5 AE (sepsis) (part B, not considered related to capivasertib or midazolam) | patients who experienced a grade 4 AE (thrombocytopenia) (treatment period 2, not considered related to capivasertib or midazolam)
28.6%: Anemia, frequency of patients overall (all treatment periods, N = 21) | Hyperglycemia, frequency of patients overall (all treatment periods, N = 21)

Source: PMC11390765 (Cancer Chemotherapy and Pharmacology, 2024)
